Measurements from patent publication US9718790B2, “Triazine derivative and pharmaceutical composition having an analgesic activity comprising the same” (SHIONOGI & CO., LTD., priority 2010, dated 2017).

Molecular target: human P2X3 receptor (Homo sapiens (Human), UniProt P56373)
Experiment: Evaluation of human P2X3 receptor inhibitory activity (Fluo-3 calcium fluorescence, FDSS 3000, ATP stimulation);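 also: stimulus was 50 nM ATP with fluorescence followed for 3 min, and the response per well was peak post-ATP fluorescence divided by the reading at measurement start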
Format: cell-based
Conditions: human P2X3 receptor, Test Example 1

Sequence of human P2X3 receptor (P56373 whole entry): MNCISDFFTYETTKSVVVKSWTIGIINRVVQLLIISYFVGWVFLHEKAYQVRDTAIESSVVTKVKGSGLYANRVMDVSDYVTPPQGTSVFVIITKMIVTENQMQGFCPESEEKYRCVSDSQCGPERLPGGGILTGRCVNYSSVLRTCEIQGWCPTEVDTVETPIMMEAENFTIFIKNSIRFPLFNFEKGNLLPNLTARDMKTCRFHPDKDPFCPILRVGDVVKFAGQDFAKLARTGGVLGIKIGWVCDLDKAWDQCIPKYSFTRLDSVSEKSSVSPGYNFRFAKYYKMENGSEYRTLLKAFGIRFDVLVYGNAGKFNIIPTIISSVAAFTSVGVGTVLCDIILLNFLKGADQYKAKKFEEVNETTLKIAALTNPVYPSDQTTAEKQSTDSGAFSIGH

Structure (SMILES) | IC50 [nM]
CC[C@@H](C)Oc1ccc(/N=c2\[nH]c(=O)n(C[C@H](C)C(=O)OC)c(=O)n2Cc2ccc(C)cc2)cc1C [Compound I-0823] | 11
CC[C@@H](C)Oc1ccc(/N=c2\[nH]c(=O)n(C[C@H](C)C(=O)OC)c(=O)n2Cc2ccc(C)cc2)cc1 [Compound I-0824] | 18
Cc1cc(/N=c2\[nH]c(=O)n([C@H](C)[C@H](C)C(=O)O)c(=O)n2Cc2ccc(Cl)cc2)ccc1OC(C)C [Compound I-0825] | 25
Cc1ccc(Cn2c(=O)n(C[C@H](C)C(=O)O)c(=O)[nH]/c2=N\c2ccc(OCC(C)C)cc2)cc1 [Compound I-0827] | 26
CCCOc1ccc(/N=c2\[nH]c(=O)n(C[C@H](C)C(=O)O)c(=O)n2Cc2ccc(C)cc2)cc1 [Compound I-0828] | 25
CCCOc1ccc(/N=c2\[nH]c(=O)n(C(C)(C)CC(=O)O)c(=O)n2Cc2ccc(Cl)cc2)cc1 [Compound I-0829] | 216
CC(C)Oc1ccc(/N=c2\[nH]c(=O)n(C(C)(C)CC(=O)O)c(=O)n2Cc2ccc(Cl)cc2)cc1F [Compound I-0830] | 89
COC(=O)[C@@H](C)Cn1c(=O)[nH]/c(=N\c2ccc(OCC(C)C)c(C)c2)n(Cc2ccc(Cl)cc2)c1=O [Compound I-0831] | 77
COC(=O)[C@@H](C)Cn1c(=O)[nH]/c(=N\c2ccc(OCC(C)C)c(C)c2)n(Cc2ccc(C)cc2)c1=O [Compound I-0832] | 103
COC(=O)[C@@H](C)Cn1c(=O)[nH]/c(=N\c2ccc(OCC3CC3)cc2)n(Cc2ccc(Cl)cc2)c1=O [Compound I-0833] | 15
COC(=O)[C@@H](C)Cn1c(=O)[nH]/c(=N\c2ccc(OCC3CC3)cc2)n(Cc2ccc(C)cc2)c1=O [Compound I-0834] | 18
Cc1cc(/N=c2\[nH]c(=O)n(C[C@H](C)C(=O)O)c(=O)n2Cc2ccc(Cl)cc2)ccc1OCC(C)C [Compound I-0835] | 78
Cc1ccc(Cn2c(=O)n(C[C@H](C)C(=O)O)c(=O)[nH]/c2=N\c2ccc(OCC(C)C)c(C)c2)cc1 [Compound I-0836] | 95
Cc1ccc(Cn2c(=O)n(C[C@H](C)C(=O)O)c(=O)[nH]/c2=N\c2ccc(OCC3CC3)cc2)cc1 [Compound I-0838] | 33
CCCOc1ccc(/N=c2\[nH]c(=O)n(C[C@H](C)C(=O)OC)c(=O)n2Cc2ccc(C)cc2)cc1Cl [Compound I-0839] | 12
CCCOc1ccc(/N=c2\[nH]c(=O)n(C[C@H](C)C(=O)O)c(=O)n2Cc2ccc(C)cc2)cc1Cl [Compound I-0840] | 17
COC(=O)[C@@H](C)Cn1c(=O)[nH]/c(=N\c2ccc(C)c(C(F)(F)F)c2)n(Cc2ccc(Cl)cc2)c1=O [Compound I-0841] | 150
Cc1ccc(/N=c2\[nH]c(=O)n(C[C@H](C)C(=O)O)c(=O)n2Cc2ccc(Cl)cc2)cc1C(F)(F)F [Compound I-0843] | 183
CC(C)Oc1ccc(/N=c2\[nH]c(=O)n(CC(C)(C)CC(=O)O)c(=O)n2Cc2ccc(Cl)cc2)cc1F [Compound I-0845] | 24
COC(=O)[C@@H](C)Cn1c(=O)[nH]/c(=N\c2ccc(OCC(F)F)cc2)n(Cc2ccc(Cl)cc2)c1=O [Compound I-0846] | 35
COC(=O)[C@@H](C)Cn1c(=O)[nH]/c(=N\c2ccc(OCC(F)F)cc2)n(Cc2ccc(C)cc2)c1=O [Compound I-0847] | 31

Structure (SMILES) | IC50 [nM]
C[C@@H](Cn1c(=O)[nH]/c(=N\c2ccc(OCC(F)F)cc2)n(Cc2ccc(Cl)cc2)c1=O)C(=O)O [Compound I-0848] | 60
Cc1ccc(Cn2c(=O)n(C[C@H](C)C(=O)O)c(=O)[nH]/c2=N\c2ccc(OCC(F)F)cc2)cc1 [Compound I-0849] | 78
Cc1cc(/N=c2\[nH]c(=O)n([C@H]3CC[C@H](C(=O)O)CC3)c(=O)n2Cc2ccc(Cl)cc2)ccc1OC(C)C [Compound I-0850] | 62
Cc1cc(/N=c2\[nH]c(=O)n([C@H]3CC[C@@H](C(=O)O)CC3)c(=O)n2Cc2ccc(Cl)cc2)ccc1OC(C)C [Compound I-0851] | 24
Cc1cc(/N=c2\[nH]c(=O)n(C[C@H](O)C(=O)O)c(=O)n2Cc2ccc(Cl)cc2)ccc1OC(C)C [Compound I-0852, (S)-1-(4-chlorobenzyl)-6-(3-mehyl-4-isopropoxyphenylimino)-3-(2-hydroxycarbonyl-2-hydroxyethyl)-1,3,5-triazinane-2,4-dion] | 38
CC[C@@H](C)Oc1ccc(/N=c2\[nH]c(=O)n(C[C@H](C)C(=O)O)c(=O)n2Cc2ccc(C)cc2)cc1C [Compound I-0853] | 13
CC[C@@H](C)Oc1ccc(/N=c2\[nH]c(=O)n(C[C@H](C)C(=O)O)c(=O)n2Cc2ccc(C)cc2)cc1 [Compound I-0854] | 32
CCOC(=O)C(F)(F)Cn1c(=O)[nH]/c(=N\c2ccc(OC(C)C)c(C)c2)n(Cc2ccc(C)cc2)c1=O [Compound I-0855] | 10
CCOC(=O)C(F)(F)Cn1c(=O)[nH]/c(=N\c2ccc(OCC)c(Cl)c2)n(Cc2ccc(C)cc2)c1=O [Compound I-0856] | 12
Cc1ccc(Cn2c(=O)n(CC(F)(F)C(=O)O)c(=O)[nH]/c2=N\c2ccc(OC(C)C)c(C)c2)cc1 [Compound I-0857] | 19
CCOc1ccc(/N=c2\[nH]c(=O)n(CC(F)(F)C(=O)O)c(=O)n2Cc2ccc(C)cc2)cc1Cl [Compound I-0858] | 22
CCCOc1ccc(/N=c2\[nH]c(=O)n(CC(F)(F)C(=O)OCC)c(=O)n2Cc2ccc(C)cc2)cc1 [Compound I-0859] | 17
COC(=O)[C@@H](C)Cn1c(=O)[nH]/c(=N\c2ccc(CC(C)C)cc2)n(Cc2ccc(C)cc2)c1=O [Compound I-0860] | 62
CCCOc1ccc(/N=c2\[nH]c(=O)n(CCCC(=O)OCC)c(=O)n2Cc2ccc(C)cc2)cc1Cl [Compound I-0861] | 19
CCOC(=O)CCCn1c(=O)[nH]/c(=N\c2ccc(OCC)c(Cl)c2)n(Cc2ccc(C)cc2)c1=O [Compound I-0862] | 10
Cc1ccc2cc(/N=c3\[nH]c(=O)n(C[C@H](C)C(=O)O)c(=O)n3Cc3ccc(Cl)cc3)ccc2n1 [Compound I-0864] | 35
COC(=O)[C@@H](C)Cn1c(=O)[nH]/c(=N\c2ccc(OC(C)C)c(C)c2)n(Cc2ccc(Br)cc2)c1=O [Compound I-0865] | 17
CCOC(=O)CCn1c(=O)[nH]/c(=N\c2ccc(OC(C)C)c(Cl)c2)n(Cc2ccc(C)cc2)c1=O [Compound I-0866, 6-(3-chloro-4-isopropoxyphenylamino)-3-(2,3-ethoxycarbonylethyl)-1-(4-methylbenzyl)-1,3,5-triazinane-2,4-dion] | 2
CCOC(=O)CCn1c(=O)[nH]/c(=N\c2ccc(OCC)c(Cl)c2)n(Cc2ccc(C)cc2)c1=O [Compound I-0867] | 6
Cc1cc(/N=c2\[nH]c(=O)n(C[C@H](C)C(=O)O)c(=O)n2Cc2ccc(Br)cc2)ccc1OC(C)C [Compound I-0868] | 23
CNC(=O)[C@H](CCO)n1c(=O)[nH]/c(=N\c2ccc(OC(C)C)c(C)c2)n(Cc2ccc(Cl)cc2)c1=O [Compound I-0869] | 574

Structure (SMILES) | IC50 [nM]
CNC(=O)[C@@H](CCO)n1c(=O)[nH]/c(=N\c2ccc(OC(C)C)c(C)c2)n(Cc2ccc(Cl)cc2)c1=O [Compound I-0870] | 530
CCCOc1ccc(/N=c2\[nH]c(=O)n(CC(F)(F)C(=O)O)c(=O)n2Cc2ccc(C)cc2)cc1 [Compound I-0871] | 40
Cc1ccc(Cn2c(=O)n(C[C@H](C)C(=O)O)c(=O)[nH]/c2=N\c2ccc(CC(C)C)cc2)cc1 [Compound I-0872] | 81
CCCOc1ccc(/N=c2\[nH]c(=O)n(CCCC(=O)O)c(=O)n2Cc2ccc(C)cc2)cc1Cl [Compound I-0873] | 47
CCOc1ccc(/N=c2\[nH]c(=O)n(CCCC(=O)O)c(=O)n2Cc2ccc(C)cc2)cc1Cl [Compound I-0874] | 86
COC(=O)C[C@@H](C)n1c(=O)[nH]/c(=N\c2ccc(OC(C)C)c(Cl)c2)n(Cc2ccc(C)cc2)c1=O [Compound I-0875] | 14
CCOc1ccc(/N=c2\[nH]c(=O)n([C@H](C)CC(=O)OC)c(=O)n2Cc2ccc(C)cc2)cc1Cl [Compound I-0876] | 23
CCCOc1ccc(/N=c2\[nH]c(=O)n([C@H](C)CC(=O)OC)c(=O)n2Cc2ccc(C)cc2)cc1Cl [Compound I-0877] | 28
Cc1ccc(Cn2c(=O)n([C@H](C)CC(=O)O)c(=O)[nH]/c2=N\c2ccc(OC(C)C)c(Cl)c2)cc1 [Compound I-0878] | 22
CCOc1ccc(/N=c2\[nH]c(=O)n([C@H](C)CC(=O)O)c(=O)n2Cc2ccc(C)cc2)cc1Cl [Compound I-0879] | 58
CCCOc1ccc(/N=c2\[nH]c(=O)n([C@H](C)CC(=O)O)c(=O)n2Cc2ccc(C)cc2)cc1Cl [Compound I-0880] | 49
CO/N=C/c1ccc(/N=c2\[nH]c(=O)n(C[C@H](C)C(=O)OC)c(=O)n2Cc2ccc(Cl)cc2)cc1F [Compound I-0881, (S)-1-(4-chlorobenzyl)-6-(3-fluoro-4-methoxyiminomethylphenylimino)-3-(2-methoxycarbonylpropyl)-1,3,5-triazinane-2,4-dion] | 127
CCOc1ccc(/N=c2\[nH]c(=O)n(CCC(=O)O)c(=O)n2Cc2ccc(C)cc2)cc1Cl [Compound I-0882] | 100
CCCOc1ccc(/N=c2\[nH]c(=O)n(C[C@H](CC)C(=O)OC)c(=O)n2Cc2ccc(C)cc2)cc1 [Compound I-0883] | 24
CC[C@@H](Cn1c(=O)[nH]/c(=N\c2ccc(OC(C)C)c(C)c2)n(Cc2ccc(C)cc2)c1=O)C(=O)OC [Compound I-0884] | 16
CCCOc1ccc(/N=c2\[nH]c(=O)n(C[C@H](CC)C(=O)O)c(=O)n2Cc2ccc(C)cc2)cc1 [Compound I-0885] | 87
CC[C@@H](Cn1c(=O)[nH]/c(=N\c2ccc(OC(C)C)c(C)c2)n(Cc2ccc(C)cc2)c1=O)C(=O)O [Compound I-0886] | 76
CC[C@@H](Cn1c(=O)[nH]/c(=N\c2ccc(OC(C)C)c(C)c2)n(Cc2ccc(Cl)cc2)c1=O)C(=O)OC [Compound I-0887] | 23
CCCOc1ccc(/N=c2\[nH]c(=O)n(C[C@H](CC)C(=O)OC)c(=O)n2Cc2ccc(Cl)cc2)cc1 [Compound I-0888] | 30
